Results on one compound are retold here after paper PMC4818757, “Small molecule inhibitors of the Dishevelled‐CXXC5 interaction are new drug candidates for bone anabolic osteoporosis therapy” (EMBO Molecular Medicine, 2016).

The series relates to ovariectomized (OVX) mice. The series can be described thus: OVX-induced osteoporosis mouse model. It is filed as in vivo. As to the method: Figure 6 Effects of KY‐02327 on OVX‐induced osteoporosis model mice • A–H Vehicle or 20 mg of KY‐02327 per kg of animal body weight (mpk) was orally administered or 0.06 mpk of the N‐terminal fragment of PTH (amino acids 1‐34) was subcutaneously injected into the Sham‐operated (Sham) or ovariectomized (OVX) mice on 5 sequential days per week for 4 weeks (n = 4). After calcein injection, the prepared femoral sections of the OVX mice were examined under fluorescence microscope to visualize integrated calcein (A, green, arrows). Nuclei were counterstained with DAPI (A, blue). Scale bars, 100 μm. Osteoblast numbers (B) and calcein double‐labeled surfaces (C) were measured in the femoral sections. The mouse femurs were analyzed using micro‐CT, and BMD (D) and BV/TV (E) were calculated from the micro‐CT data. The three‐dimensional images of femoral trabecular bone were reconstructed (F), and trabecular number (G) and trabecular separation (H) were calculated. Data Information: The data are the mean ± s.d. (error bars). Significance was assessed using Kruskal–Wallis test.
This animal study was approved by the Institutional Review Board of Severance Hospital, Yonsei University College of Medicine. The mice were housed in filter‐topped shoebox cages with a computerized environmental control system (MJ LTD, Seoul, Korea). The care and treatment of experimental animals were performed in accordance with institutional guidelines. The room temperature was maintained at 26.5°C with a relative humidity of approximately 40–70%. The mice were given a standard maintenance diet from Dae Han Bio Link (Daejeon, Korea). For OVX mouse experiments, the surgeries were performed with 8‐week‐old female BL6 mice under anesthesia with avertin (2,2,2‐tribromoethanol; Worthington Biochemical, Freehold, NJ) as described previously (Zahoor et al, 2014). After removing the hair, dorsal incisions were made into the dermal layers above both sides of the ovaries using dissection scissors. The connection between the fallopian tube and the uterine horn was cut, and the ovary was removed. The incision was then sutured with 3 single catgut stitches. Sham mice were used as controls. After 4 weeks, the OVX group was divided into three groups for oral administration of vehicle (saline containing 10% Tween‐60) or 20 mg of KY‐02327 per kg of animal body weight (mpk) of KY‐02327, or for subcutaneous injection of 0.06 mpk of N‐terminal fragment of PTH (amino acids 1–34), which were administered for 5 sequential days per week for 4 weeks. The animals were sacrificed, and the organs were harvested for analysis. For the calcein double‐labeling experiment (Pall et al, 1987), calcein (10 mpk in 2% sodium hydrocarbonate, pH 7.4) was injected twice, on the last day of the 2nd and 3rd week. All the mice were randomly assigned to each groups, and the investigators were blinded to the group allocation during the treatments and experiments.
The mouse femurs were scanned using a micro‐CT system (Skyscan 1072; Skyscan, Aartselaar, Belgium). The scanned image data were reconstructed to create 3D images and analyzed using the CT‐Analyzing Program (Skyscan). For femoral trabecular bone analysis, the femurs were scanned with a voxel size of 10 μm, beginning at the end of the growth plate and extending proximally along the diaphysis, and 80 continuous slices (beginning at 0.1 mm from the most proximal aspect of the growth plate in which both condyles were no longer visible) were selected for analysis.
The femurs of OVX mice and the calvariae of 4‐day‐old mice were fixed in 4% paraformaldehyde in PBS. The bones were then decalcified in 10 mM EDTA and embedded in paraffin. Five‐micrometer tissue sections were deparaffinized in 100% xylene followed by re‐hydration with sequential 100% to 50% ethanol washes. The sections were stained with hematoxylin and eosin (H&E), and light micrographs were captured using a SMZ645 Nikon microscope (Nikon, Tokyo, Japan). […]

[1] abbreviates: KY‐02327 20 mpk oral, PTH 0.06 mpk subcutaneous, 4 weeks.
Where [2] appears, read: KY‐02327 20 mpk oral, PTH 0.06 mpk subcutaneous, 5 days per week for 4 weeks.

On to `CCOC(=O)c1cc2cc(O)ccc2n1CC(=O)NCCN1CCCCC1` [KY‐02327], for which, where the note is “4 weeks treatment, H&E”, the “histology of livers, lungs, spleens” value was “No histological abnormalities”. For the same compound, where the note is “4‐week treatment”, the “weight of treated mice” value is reported as “did not change significantly”. Also, under setting [1], the “destroyed trabecular bones (3D micro-CT images)” value is “rescued”; the “mineral contents of the bone (BMD), femur, micro‐CT” value is on record as “significantly increased”; the trabecular bone number entry is listed as “increase”; the trabecular separation entry is given as “decrease”. The “volume of bone (BV/TV)” value (KY‐02327 20 mpk oral, PTH 0.06 mpk subcutaneous, 4 weeks, vs vehicle) is on record as “increased”. Further, under setting [2], the “calcein double‐labeled surface” value is listed as “increased”, the “new bone formation (calcein-labeled) in femur” value is given as “recovered” and the number of osteoblasts entry is “increased”. Further, where the note is “OVX mice, 20 mpk oral”, the “calcein double-labelled surface, fold increase” value is reported as “approximately 2 fold” and the “number of osteoblasts, fold increase” value was “approximately 2 fold”.
